# Measurements: PMC12120719, “Targeting Senescence with Apigenin Improves Chemotherapeutic Efficacy and Ameliorates Age‐Related Conditions in Mice” (Advanced Science, 2025)
# Target: T1, PRDX6 (peroxiredoxin 6) (Homo sapiens, UniProt P30041)
# T1 construct: recombinant human PRDX6 (SinoBiological), immobilized on CM5 chip
# T1 sequence (P30041 2-224): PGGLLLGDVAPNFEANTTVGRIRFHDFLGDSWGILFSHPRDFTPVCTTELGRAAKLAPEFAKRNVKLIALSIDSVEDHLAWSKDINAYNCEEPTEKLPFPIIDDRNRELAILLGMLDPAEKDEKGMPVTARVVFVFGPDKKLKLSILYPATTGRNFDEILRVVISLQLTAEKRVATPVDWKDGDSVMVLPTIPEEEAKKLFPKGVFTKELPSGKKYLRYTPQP
# Experiment: SPR (Biacore T200); supported by MST (Kd […]), CETSA, DARTS, biotin-probe pulldown
# Assay type: binding
compound,measurement,value
"O=c1cc(-c2ccc(O)cc2)oc2cc(O)cc(O)c12 [apigenin, 4′,5,7‐trihydroxyflavone]",Kd,0.237 µM
